# Measured values taken from patent US20130096189A1, “USE OF GLABRANIN FOR STIMULATING HAIR GROWTH” (priority 2010, published 2013).
# Tested on: Fibroblast cells from the NIH3T3D4 cell line
# Assay: In-vitro fibroblast cell growth in low serum (colourimetric cell number, Promega CellTiter), with or without potassium channel blockers
# Format: cell-based
# Conditions: for Data (absorbance at 450 nM), cell number: 5 days, mean ± SD, 8 replicates
# Method: The assay described hereinbelow looks at the effect of an active on potentiation of cell growth in a low nutrient environment, ie at the effects of the active on cell growth factors which are mitogenic, rather than on the identification of an active which itself is mitogenic.
# Glabranin (TimTec) was added in 50 μL of dimethylsulphoxide (DMSO) and vortexed to dissolve. […] of the glabranin in DMSO was added to Dulbeccos Minimum Essential Medium (DMEM) containing 2% v/v foetal calf serum (FCS) to give a 10 μg/mL glabranin solution. Serial dilutions were prepared using DMSO/DMEM/FCS as above. 1 mM minoxidil in DMSO/DMEM/FCS as above was used as a positive control. A DMSO control in DMEM containing 2% v/v FCS was also prepared.
# Fibroblast cells from the NIH3T3D4 cell line (European collection of animal cell cultures, Health Protection Agency Porton Down, England) were cultured in DMEM media in the absence of antibiotics. The cells were removed using 10 mL of 0.25% w/w trypsin and 0.038% w/v EDTA in Hank's medium for 5 minutes, 10 mL DMEM containing 10% v/v FCS was added and the cells were spun down at 1000 rpm for 2 minutes. After removing the medium the cells were washed in 10 mL of DMEM containing 10% v/v FCS and spun at 1000 rpm for 2 minutes. The cells were then resuspended in 10 mL of DMEM containing 10% v/v FCS and counted using a cell counting chamber. A suspension of cells containing 5000 cells per 100 μL (50,000 cells per mL) was prepared and 100 μL of the cell suspension was plated out into a 96 well plate. The cells were allowed to adhere overnight in an incubator at 37 degrees centigrade in an atmosphere of 5% v/v CO2 in air. After washing the wells thrice with DMEM (without FCS), 100 μL of the test solution (containing […] glabranin per mL DMSO/DMEM/FCS with or without 10 μM glibenclamide (a potassium ion channel blocker) and 0.1 mM tetraethylammonium (TEA is a potassium ion channel blocker which directly binds to the channel) was added to each of eight wells. Fresh media containing glabranin was added every day for 5 days.
# Cell numbers were determined after 5 days in test medium using a colourimetric method (Promega CellTiter Reagent from Promega). 20 μL Reagent was added to each well and the plate incubated as before for one hour.
Structure (SMILES),"Data (absorbance at 450 nM), cell number (Minoxidil 75 μM in 2% FCS/DMSO)","Data (absorbance at 450 nM), cell number (glabranin 0.01 μg/ml in 2% FCS/DMSO)","Data (absorbance at 450 nM), cell number (glabranin 0.1 μg/ml in 2% FCS/DMSO)","Data (absorbance at 450 nM), cell number (glabranin 1 μg/ml in 2% FCS/DMSO)",potassium channel opening leading to fibroblast cell growth (conclusion from table 1) (growth increase reversed by potassium channel blockers)
"Nc1cc(N2CCCCC2)nc(N)[n+]1[O-] [Minoxidil, reference compound]",0.36 ± 0.04,–,–,–,–
"CC(C)=CCc1c(O)cc(O)c2c1O[C@H](c1ccccc1)CC2=O [glabranin, (2S)-5,7-dihydroxy-8-(3-methylbut-2-enyl)-2-phenyl-2,3-dihydrochromen-4-one]",–,0.34 ± 0.02,0.34 ± 0.02,0.31 ± 0.02,potassium channel opener
